From US20220031700A1, “Treatment of Acute Respiratory Distress Syndrome (ARDS)” (priority 2020, published 2022)
Entries after “also recorded” stand apart in the source; their conditions may differ.

Columns and labels:
total IgM = test: Serum total IgM by ELISA in experimental influenza model; conditions: influenza 6.5 Lg EID50 IN; 100 mg/kg IP QD 12 days; Day 12; compared to influenza-infected/vehicle treated controls
in vivo = conditions: mouse
[1] = test system: Influenza-specific antibody; test: Serum influenza-specific antibody by ELISA in experimental influenza model; conditions: influenza 6.5 Lg EID50 IN; 100 mg/kg IP QD 12 days; Day 12; compared to influenza-infected/vehicle treated controls
[2] = test system: mouse model of cytokine storm; test: Evans Blue dye (EBD) assay of lung after intranasal LPS challenge; assay type: in vivo
total IgG = test: Serum total IgG by ELISA in experimental influenza model; conditions: influenza 6.5 Lg EID50 IN; 100 mg/kg IP QD 12 days; Day 12; compared to influenza-infected/vehicle treated controls
[3] = test system: mouse model of cytokine storm; test: Lung Wet/Dry ratio assay after intranasal LPS challenge; assay type: in vivo; conditions: LPS 50 μg IN, compared to LPS/Vehicle group
Method: Intranasal administration of LPS: The LPS challenge was carried out according to Ma et al., Inflammation, 2019, 42, 1901-1912.
Compound dosing: Animals in groups 2-5 were dosed according to the Table 1 for 6 days. On day 7, 1 hour after the last dose, animals were intranasally treated with LPS. Dexamethasone (20 mg/kg PO) was administered 1 hour prior to LPS treatment. Six hours after the instillation of LPS, animals received an IV dose of EBD. Thirty minutes later, animals were sacrificed, and the lungs were collected as previously described.
(§1) Intranasal administration of LPS: The LPS challenge was carried out according to Ma et al. (2019).
(§2) Compound dosing: Animals in groups 2-5 were dosed according to the Table 2 for 6 days. Group 3 animals received 6 doses of MLR-1023 QD and a 7th dose 1 hour prior to LPS. Group 4 animals received 6 doses of MLR-1023 QD and Vehicle 1 hour prior to LPS. Group 5 animals received 6 Vehicle doses QD and 1 dose of MLR-1023 1 hour prior to LPS. On day 7, 1 hour after the last dose, animals were intranasally treated with LPS. Six hours after the instillation of LPS, animals received an IV dose of EBD. Thirty minutes later, animals were sacrificed, and the lungs were collected as previously described.

TNF-alpha = test: Plasma TNF-alpha level by ELISA after intranasal LPS challenge; assay type: in vivo, mouse; conditions: Example 2; 100 mg/kg IP, all dosing paradigms; comparison to LPS/vehicle group
Method: as §1, §2

IL-6 = test: Plasma IL-6 level by ELISA after intranasal LPS challenge; assay type: in vivo, mouse; conditions: Example 2; 100 mg/kg IP, all dosing paradigms; comparison to LPS/vehicle group
Method: as §1, §2

For `Cc1cccc(Oc2cnc(=O)[nH]c2)c1` [MLR-1023, tolimidone], the “serum total IgM level” value (total IgM) was “did not alter”, the half-life (in vivo) was roughly 1.5 h and the “serum influenza-specific antibody level” value [1] was “did not alter”. The “Evans Blue content in the lung” value ([2]; Example 1, C57Bl/6J male mice, LPS 50 μg IN, MLR-1023 30 and 100 mg/kg IP QD 7 days, last dose 1 hr prior to LPS, dexamethasone 20 mg/kg PO 1 hr prior to LPS, compared to LPS/Vehicle group) was “greater than that of dexamethasone and comparable to that of animals that received no LPS; also recorded: significant dose dependent decrease”, the “Evans Blue dye content in the lungs (plasma extravasation)” value ([2]; Example 2, 100 mg/kg IP QD, 6 doses plus acute dose 1 hour before LPS challenge (7×), relative to the 6-dose paradigm) was “comparable level of reduced plasma extravasation” and the “Evans Blue dye content in the lungs” value ([2]; Example 2, 100 mg/kg IP QD, 6 doses, vehicle 1 hr prior to LPS (6×), compared to LPS/Vehicle group) was “significant decrease”. For the same molecule, the “Evans Blue dye content in the lungs (plasma extravasation)” value ([2]; Example 2, 100 mg/kg IP, single dose 1 hr prior to LPS challenge (1×)) was “did not yield reduction”, the “serum total IgG level” value (total IgG) was “did not alter” and the “wet/dry ratio of the lung” value ([3]; Example 1, C57Bl/6J male mice, MLR-1023 30 and 100 mg/kg IP QD 7 days, last dose 1 hr prior to LPS, dexamethasone 20 mg/kg PO 1 hr prior to LPS) was “significant dose dependent decrease”. For the same molecule, the “wet/dry ratio of the lung” value ([3]; Example 2, 100 mg/kg IP, all dosing paradigms (7×, 6×, 1×)) was “significant decrease”, the “plasma TNF-α concentration” value (TNF-alpha) was “did not produce significant effects” and the “plasma IL-6 concentration” value (IL-6) was “did not produce significant effects”.
